Measurements: US11746100B2 (GLOBAL BLOOD THERAPEUTICS, INC., priority 2020, dated 2023)

Molecular target: T1, human ferroportin (Homo sapiens, UniProt Q9NP59)
T1 construct: luciferase reporter (read with the Nano-Glo Luciferase Assay System); expressed in transfected cells; host or cells: CHO cells, stably transfected, expression induced with doxycycline
T1 sequence (Q9NP59 1-571): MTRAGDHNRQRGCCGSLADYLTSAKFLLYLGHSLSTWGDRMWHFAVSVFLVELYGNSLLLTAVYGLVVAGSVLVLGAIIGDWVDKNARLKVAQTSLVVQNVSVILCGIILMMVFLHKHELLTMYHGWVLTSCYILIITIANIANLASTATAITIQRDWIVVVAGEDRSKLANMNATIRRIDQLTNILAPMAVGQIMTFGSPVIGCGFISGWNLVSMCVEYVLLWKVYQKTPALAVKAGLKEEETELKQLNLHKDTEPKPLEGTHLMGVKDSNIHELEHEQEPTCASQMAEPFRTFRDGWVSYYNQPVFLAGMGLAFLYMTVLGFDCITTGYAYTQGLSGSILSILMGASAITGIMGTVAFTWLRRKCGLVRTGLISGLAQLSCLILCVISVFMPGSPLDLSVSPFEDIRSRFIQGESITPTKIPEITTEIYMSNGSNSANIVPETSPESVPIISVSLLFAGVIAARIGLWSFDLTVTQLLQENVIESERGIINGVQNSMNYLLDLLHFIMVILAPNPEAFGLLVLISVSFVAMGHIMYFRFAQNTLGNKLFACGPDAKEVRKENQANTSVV
Assay: Biological in-vitro ferroportin internalization assay (luciferase reporter)
Assay type: cell-based
Conditions: average pEC50; stably-transfected CHO cell line expressing human ferroportin tagged to a luciferase reporter; 6 h incubation with test compound
Outline: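 Read-out is Nano-Glo luciferase signal after 6 h compound exposure, with average pEC50 derived. Cells are a stable CHO line carrying luciferase-tagged human ferroportin, pre-loaded 24 h with ferric ammonium citrate and doxycycline-induced for 24 h.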

Structure (SMILES): CN(CC(=O)NC(C)(C)C)c1nc(-c2cc(OCC(C)(C)O)ccn2)nc2c1CCC2=O [Compound 501, N-tert-butyl-2-({2-[4-(2-hydroxy-2-methylpropoxy)pyridin-2-yl]-7-oxo-5H,6H,7H-cyclopenta[d]pyrimidin-4-yl}(methyl)amino)acetamide]
- pEC50: 6.4

Structure (SMILES): CN(CC(=O)N1CCOCC1)c1nc(-c2cc(OCC(C)(C)O)ccn2)nc2c1CCC2 [Compound 399, 2-({2-[4-(2-hydroxy-2-methylpropoxy)pyridin-2-yl]-5H,6H,7H-cyclopenta[d]pyrimidin-4-yl}(methyl)amino)-1-(morpholin-4-yl)ethan-1-oneide]
- pEC50: 7.5

Structure (SMILES): COc1ccc(NC(=O)CN(C)c2nc(-c3cc(OCC(C)(C)O)ccn3)nc3c2CCC3)cn1 [Compound 210, 2-({2-[4-(2-hydroxy-2-methylpropoxy)pyridin-2-yl]-5H,6H,7H-cyclopenta[d]pyrimidin-4-yl}(methyl)amino)-N-(6-methoxypyridin-3-yl)acetamide]
- pEC50: 7.9

Structure (SMILES): CN(CC(=O)Nc1cnn(C)c1)c1nc(-c2cc(OC(F)F)ccn2)nc2c1CCC2 [Compound 213, 2-({2-[4-(difluoromethoxy)pyridin-2-yl]-5H,6H,7H-cyclopenta[d]pyrimidin-4-yl}(methyl)amino)-N-(1-methyl-1H-pyrazol-4-yl)acetamide]
- pEC50: 6.4

Structure (SMILES): CN(CC(=O)Nc1cccc(F)c1)c1nc(-c2cc(OCCO)ccn2)nc2c1CCC2 [Compound 167, N-(3-fluorophenyl)-2-({2-[4-(2-hydroxyethoxy)pyridin-2-yl]-5H,6H,7H-cyclopenta[d]pyrimidin-4-yl}(methyl)amino)acetamide]
- pEC50: 7.9

Structure (SMILES): CSCC[C@H](C(=O)NC(C)(C)C)N(C)c1nc(-c2cc(OC(F)F)ccn2)nc2c1CCC2 [Compound 212, (2R)—N-tert-butyl-2-({2-[4-(difluoromethoxy)pyridin-2-yl]-5H,6H,7H-cyclopenta[d]pyrimidin-4-yl}(methyl)amino)-4-(methylsulfanyl)butanamide]
- pEC50: 7.1

Structure (SMILES): CN(CC(=O)Nc1cncc(F)c1)c1nc(-c2cc3ccccc3cn2)nc2c1CCC2 [Compound 240, N-(5-fluoropyridin-3-yl)-2-{[2-(isoquinolin-3-yl)-5H,6H,7H-cyclopenta[d]pyrimidin-4-yl](methyl)amino}acetamide]
- pEC50: 7.1
